{"source": "patent US8114894B2", "about": "“Bicyclic compounds and methods of making and using same” (Nanotherapeutics, Inc., priority 2008, dated 2012)", "biological_target": "T1, human 5-HT4e receptor (Homo sapiens, UniProt Q13639)", "T1 construct": "expressed in transfected cells; host or cells: CHO cells", "T1 sequence (Q13639 1-378 isoform Q13639-5)": "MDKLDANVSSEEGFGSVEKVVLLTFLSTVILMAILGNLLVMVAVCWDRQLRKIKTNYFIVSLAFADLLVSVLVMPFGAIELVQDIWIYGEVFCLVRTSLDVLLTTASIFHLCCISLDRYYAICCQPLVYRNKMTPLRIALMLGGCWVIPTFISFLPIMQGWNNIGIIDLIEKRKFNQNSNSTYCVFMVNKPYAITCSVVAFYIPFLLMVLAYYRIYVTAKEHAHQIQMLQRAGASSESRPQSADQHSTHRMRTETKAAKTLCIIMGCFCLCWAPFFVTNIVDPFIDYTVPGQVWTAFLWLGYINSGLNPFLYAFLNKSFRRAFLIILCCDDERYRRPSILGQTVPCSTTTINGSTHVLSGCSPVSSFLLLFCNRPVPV", "assay": "Binding affinity assay, radioligand [3H]GR 113808 binding in transfected CHO cell membrane homogenates", "conditions": "0.3 nM [3H]GR 113808; for Ki: human 5-HT4e receptor in transfected CHO cells, read-out: KI (μM or % inhibition); for inhibition at 0.3 µM: @ 0.3 uM test compound; for inhibition at 0.3 µM / inhibition at 3 µM: read-out: KI (μM or % inhibition): percent inhibition of the control radioligand specific binding; for inhibition at 3 µM: @ 3 uM test compound", "description": "The evaluation of the affinity of compounds for the human 5-HT4e receptor in transfected CHO cells was determined in a radioligand binding assay. Experimental protocol: Cell membrane homogenates (140 μg protein) were incubated for […] at 37° C. with 0.3 nM [3H]GR 113808 in the absence or presence of the test compound in a buffer containing 50 mM Hepes/Tris (pH 7.4) and 1 μM pargyline. Nonspecific binding was determined in the presence of 100 μM 5-HT. Following incubation, the samples were filtered rapidly under vacuum through glass fiber filters (GF/B, Packard) presoaked with 0.3% PEI and rinsed several times with ice-cold 50 mM Tris-HCl using a 96-sample cell harvester (Unifilter, Packard). The filters were dried then counted for radioactivity in a scintillation counter (Topcount, Packard) using a scintillation cocktail (Microscint 0, Packard). The results are expressed as a percent inhibition of the control radioligand specific binding at a certain concentration of the test compound. The test compound can also be assessed at several concentrations to obtain a competition curve from which its IC50 and Ki are calculated.", "note": "Where a name gives a salt, the structure may show the parent alone."}
{"smiles": "CCN(CC)CCNC(=O)C(=O)c1cn(C(C)C)c2ccccc12", "note": "[Example 3, N-(2-(Diethylamino)ethyl)-2-(1-isopropyl-1H-indol-3-yl)-2-oxoacetamide hydrochloride]", "values": [{"measurement": "Ki", "result": 0.008, "unit": "µM"}]}
{"smiles": "CC(C)n1cc(C(=O)C(=O)NC2CCN(CCNS(C)(=O)=O)CC2)c2ccccc21", "note": "[Example 21, 2-(1-Isopropyl-1H-indol-3-yl)-N-(1-(2-(methylsulfonamido)ethyl)piperidin-4-yl)-2-oxoacetamide TFA salt]", "values": [{"measurement": "inhibition at 0.3 µM", "result": 95, "unit": "%"}, {"measurement": "inhibition at 3 µM", "result": 101, "unit": "%"}]}
{"smiles": "CC(C)n1cc(C(=O)C(=O)NCCN2CCCCC2)c2ccc([N+](=O)[O-])cc21", "note": "[Example 7, 2-(1-Isopropyl-6-nitro-1H-indol-3-yl)-2-oxo-N-(2-(piperidin-1-yl)ethyl)acetamide hydrochloride]", "values": [{"measurement": "Ki", "result": 2.7, "unit": "µM"}]}
{"smiles": "CC(C)CN1CCC(CNC(=O)C(=O)c2cn(C(C)C)c3ccccc23)CC1", "note": "[Example 15, N-((1-Isobutylpiperidin-4-yl)methyl)-2-(1-isopropyl-1H-indol-3-yl)-2-oxoacetamide]", "values": [{"measurement": "Ki", "result": 0.016, "unit": "µM"}]}
{"smiles": "CC(C)n1cc(C(=O)C(=O)NCCN2CCCCC2)c2ccc(N)cc21", "note": "[Example 8, 2-(6-Amino-1-isopropyl-1H-indol-3-yl)-2-oxo-N-(2-(piperidin-1-yl)ethyl)acetamide hydrochloride]", "values": [{"measurement": "Ki", "result": 0.75, "unit": "µM"}]}
{"smiles": "CC(C)n1cc(C(=O)C(=O)NCCCN2CCCCC2)c2ccccc21", "note": "[Example 1, 2-(1-Isopropyl-1H-indol-3-yl)-2-oxo-N-(3-(piperidin-1-yl)propyl)acetamide hydrochloride]", "values": [{"measurement": "Ki", "result": 0.007, "unit": "µM"}]}
{"smiles": "CC(C)n1cc(C(=O)C(=O)NC2CCN(CCCO)CC2)c2ccccc21", "note": "[Example 13, N-(1-(3-Hydroxypropyl)piperidin-4-yl)-2-(1-isopropyl-1H-indol-3-yl)-2-oxoacetamide]", "values": [{"measurement": "Ki", "result": 0.0024, "unit": "µM"}]}
{"smiles": "CCC(C)n1cc(C(=O)C(=O)NCCN2CCCCC2)c2ccccc21", "note": "(centres unmarked) [Example 5, 2-(1-sec-Butyl-1H-indol-3-yl)-2-oxo-N-(2-(piperidin-1-yl)ethyl)acetamide hydrochloride]", "values": [{"measurement": "Ki", "result": 0.031, "unit": "µM"}]}
{"smiles": "CCn1cc(C(=O)C(=O)NCCN2CCCCC2)c2ccccc21", "note": "[Example 4, 2-(1-Ethyl-1H-indol-3-yl)-2-oxo-N-(2-(piperidin-1-yl)ethyl)acetamide hydrochloride]", "values": [{"measurement": "Ki", "result": 0.005, "unit": "µM"}]}
{"smiles": "Cc1ccc2c(c1)c(C(=O)C(=O)NCCN1CCCCC1)cn2C(C)C", "note": "[Example 12, 2-(1-isopropyl-5-methyl-1H-indol-3-yl)-2-oxo-N-(2-(piperidin-1-yl)ethyl)acetamide]", "values": [{"measurement": "Ki", "result": 0.071, "unit": "µM"}]}
{"smiles": "CC(C)n1cc(C(=O)C(=O)NCCN2CCCCC2)c2cccnc21", "note": "[Example 17, 2-(1-Isopropyl-1H-pyrrolo[2,3-b]pyridin-3-yl)-2-oxo-N-(2-(piperidin-1-yl)ethyl)acetamide]", "values": [{"measurement": "Ki", "result": 0.022, "unit": "µM"}]}
{"smiles": "COc1ccc2c(c1)c(C(=O)C(=O)NCCN1CCCCC1)cn2C(C)C", "note": "[Example 11, 2-(1-Isopropyl-5-methoxy-1H-indol-3-yl)-2-oxo-N-(2-(piperidin-1-yl)ethyl)acetamide]", "values": [{"measurement": "Ki", "result": 0.31, "unit": "µM"}]}
{"smiles": "CC(C)n1cc(C(=O)C(=O)NCCN2CCC(C(F)(F)F)CC2)c2ccccc21", "note": "[Example 16, 2-(1-Isopropyl-1H-indol-3-yl)-2-oxo-N-(2-(4-(trifluoromethyl)piperidin-1-yl)ethyl)acetamide]", "values": [{"measurement": "Ki", "result": 0.023, "unit": "µM"}]}
{"smiles": "CC(C)n1cc(C(=O)C(=O)NCCN2CCCCC2)c2ccc(N)c(Cl)c21", "note": "[Example 9, 2-(6-Amino-7-chloro-1-isopropyl-1H-indol-3-yl)-2-oxo-N-(2-(piperidin-1-yl)ethyl)acetamide hydrochloride]", "values": [{"measurement": "Ki", "result": 0.1, "unit": "µM"}]}
{"smiles": "CC(C)n1cc(C(=O)C(=O)NCCN2CCCCC2)c2cc(Cl)ccc21", "note": "[Example 6, 2-(5-Chloro-1-isopropyl-1H-indol-3-yl)-2-oxo-N-(2-(piperidin-1-yl)ethyl)acetamide hydrochloride]", "values": [{"measurement": "Ki", "result": 0.047, "unit": "µM"}]}
{"smiles": "CCC1CCN(CCNC(=O)C(=O)c2cn(C(C)C)c3ccccc23)CC1", "note": "[Example 23, N-(2-(4-ethylpiperidin-1-yl)ethyl)-2-(1-isopropyl-1H-indol-3-yl)-2-oxoacetamide hydrochloride]", "values": [{"measurement": "inhibition at 0.3 µM", "result": 99, "unit": "%"}, {"measurement": "inhibition at 3 µM", "result": 101, "unit": "%"}]}
{"smiles": "CC(C)n1cc(C(=O)C(=O)NCCN2CCCCC2)c2ccccc21", "note": "[Example 2, 2-(1-Isopropyl-1H-indol-3-yl)-2-oxo-N-(2-(piperidin-1-yl)ethyl)acetamide hydrochloride]", "values": [{"measurement": "Ki", "result": 0.005, "unit": "µM"}]}
{"smiles": "CCCCN1CCC(NC(=O)C(=O)c2cn(C(C)C)c3ccccc23)CC1", "note": "[Example 19, N-(1-Butylpiperidin-4-yl)-2-(1-isopropyl-1H-indol-3-yl)-2-oxoacetamide]", "values": [{"measurement": "Ki", "result": 0.0025, "unit": "µM"}]}
{"smiles": "CCCCC1CCN(CCNC(=O)C(=O)c2cn(C(C)C)c3ccccc23)CC1", "note": "[Example 24, N-(2-(4-Butylpiperidin-1-yl)ethyl)-2-(1-isopropyl-1H-indol-3-yl)-2-oxoacetamide]", "values": [{"measurement": "inhibition at 0.3 µM", "result": 95, "unit": "%"}, {"measurement": "inhibition at 3 µM", "result": 101, "unit": "%"}]}
{"smiles": "CC(C)n1cc(C(=O)C(=O)NCCN2CCCC2)c2ccccc21", "note": "[Example 10, 2-(1-Isopropyl-1H-indol-3-yl)-2-oxo-N-(2-(pyrrolidin-1-yl)ethyl)acetamide]", "values": [{"measurement": "Ki", "result": 0.013, "unit": "µM"}]}
{"smiles": "CCCN1CCC(NC(=O)C(=O)c2cn(C(C)C)c3ccccc23)CC1", "note": "[Example 14, 2-(1-Isopropyl-1H-indol-3-yl)-2-oxo-N-(1-propylpiperidin-4-yl)acetamide]", "values": [{"measurement": "Ki", "result": 0.0027, "unit": "µM"}]}
{"smiles": "CCCC1CCN(CCNC(=O)C(=O)c2cn(C(C)C)c3ccccc23)CC1", "note": "[Example 18, 2-(1-Isopropyl-1H-indol-3-yl)-2-oxo-N-(2-(4-propylpiperidin-1-yl)ethyl)acetamide TFA salt]", "values": [{"measurement": "inhibition at 0.3 µM", "result": 99, "unit": "%"}, {"measurement": "inhibition at 3 µM", "result": 102, "unit": "%"}]}
{"smiles": "CC(C)n1cc(C(=O)C(=O)NCCN2CCC(CCO)CC2)c2ccccc21", "note": "[Example 22, N-(2-(4-(2-Hydroxyethyl)piperidin-1-yl)ethyl)-2-(1-isopropyl-1H-indol-3-yl)-2-oxoacetamide hydrochloride]", "values": [{"measurement": "inhibition at 0.3 µM", "result": 99, "unit": "%"}, {"measurement": "inhibition at 3 µM", "result": 101, "unit": "%"}]}
{"smiles": "COCCCN1CCC(NC(=O)C(=O)c2cn(C(C)C)c3ccccc23)CC1", "note": "[Example 20, 2-(1-Isopropyl-1H-indol-3-yl)-N-(1-(3-methoxypropyl)piperidin-4-yl)-2-oxoacetamide TFA salt]", "values": [{"measurement": "Ki", "result": 0.0069, "unit": "µM"}]}
